pKi: −log10 of the molar value.
Experiments:
Carbonic anhydrase 1 = Carbonic anhydrase 1 (Homo sapiens, UniProt P00915); test: Inhibition of recombinant human carbonic anhydrase-1 assessed as reduction in enzyme-catalyzed hydration activity using CO2 as substrate preincubated for 15 mins followed substrate addition measured after 10 to 100 sec by phenol red dye based stopped flow assay
Carbonic anhydrase 7 = Carbonic anhydrase 7 (Homo sapiens, UniProt P43166); test: Inhibition of recombinant human carbonic anhydrase-7 assessed as reduction in enzyme-catalyzed hydration activity using CO2 as substrate preincubated for 15 mins followed substrate addition measured after 10 to 100 sec by phenol red dye based stopped flow assay
Carbonic anhydrase 2 = Carbonic anhydrase 2 (Homo sapiens, UniProt P00918); test: Inhibition of recombinant human carbonic anhydrase-2 assessed as reduction in enzyme-catalyzed hydration activity using CO2 as substrate preincubated for 15 mins followed substrate addition measured after 10 to 100 sec by phenol red dye based stopped flow assay
Carbonic anhydrase 4 = Carbonic anhydrase 4 (Homo sapiens, UniProt P22748); test: Inhibition of recombinant human carbonic anhydrase-4 assessed as reduction in enzyme-catalyzed hydration activity using CO2 as substrate preincubated for 15 mins followed substrate addition measured after 10 to 100 sec by phenol red dye based stopped flow assay
Chain of Carbonic anhydrase 4 (P22748 whole entry): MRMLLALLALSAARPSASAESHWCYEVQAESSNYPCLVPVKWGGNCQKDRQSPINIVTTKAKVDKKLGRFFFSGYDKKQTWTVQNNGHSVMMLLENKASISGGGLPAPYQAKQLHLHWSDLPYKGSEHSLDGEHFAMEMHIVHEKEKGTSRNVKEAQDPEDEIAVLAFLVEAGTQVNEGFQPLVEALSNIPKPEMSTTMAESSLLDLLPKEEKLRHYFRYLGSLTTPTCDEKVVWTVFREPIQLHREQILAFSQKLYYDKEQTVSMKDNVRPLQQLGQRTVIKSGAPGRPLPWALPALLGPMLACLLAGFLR

Chain of Carbonic anhydrase 1 (P00915 whole entry): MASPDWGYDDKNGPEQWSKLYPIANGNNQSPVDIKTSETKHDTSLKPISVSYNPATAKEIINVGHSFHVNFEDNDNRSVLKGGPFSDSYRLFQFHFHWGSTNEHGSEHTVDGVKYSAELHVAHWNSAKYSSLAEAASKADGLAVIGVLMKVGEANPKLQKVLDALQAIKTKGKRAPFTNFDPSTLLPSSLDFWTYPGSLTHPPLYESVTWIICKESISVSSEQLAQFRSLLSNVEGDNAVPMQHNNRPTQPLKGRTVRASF
Chain of Carbonic anhydrase 7 (P43166 whole entry): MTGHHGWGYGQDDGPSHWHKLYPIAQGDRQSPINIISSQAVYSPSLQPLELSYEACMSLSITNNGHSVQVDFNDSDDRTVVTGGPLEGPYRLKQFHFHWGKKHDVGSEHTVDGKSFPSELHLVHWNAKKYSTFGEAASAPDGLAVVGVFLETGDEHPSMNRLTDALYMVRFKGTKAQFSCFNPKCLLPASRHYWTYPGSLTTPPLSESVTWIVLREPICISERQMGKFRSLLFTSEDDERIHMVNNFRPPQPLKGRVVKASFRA

| Compound | pKi (Carbonic anhydrase 1) | pKi (Carbonic anhydrase 7) | pKi (Carbonic anhydrase 2) | pKi (Carbonic anhydrase 4) |
| --- | --- | --- | --- | --- |
| COc1ccc(S(N)(=O)=O)c(-c2noc(N)c2S(N)(=O)=O)c1 | < 5.00 | < 5.00 |  | < 5.00 |
| COc1ccc(S(N)(=O)=O)c(-c2cc(NC(C)=O)on2)c1 | < 5.00 | < 5.00 | < 5.00 | < 5.00 |
| CC(=O)Nc1onc(C)c1-c1ccc(S(N)(=O)=O)c(C)c1 |  |  |  | < 5.00 |
| COc1ccc(S(N)(=O)=O)c(-c2c(C)noc2NC(C)=O)c1 | < 5.00 | < 5.00 | < 5.00 | < 5.00 |
| COc1ccc(-c2cc(NC(C)=O)on2)cc1S(N)(=O)=O | < 5.00 | < 5.00 | < 5.00 | < 5.00 |

The remaining lines, values ahead:

| pKi (Carbonic anhydrase 1) | pKi (Carbonic anhydrase 7) | pKi (Carbonic anhydrase 2) | pKi (Carbonic anhydrase 4) | Compound |
| --- | --- | --- | --- | --- |
| < 5.00 | < 5.00 | < 5.00 | < 5.00 | COc1ccc(-c2c(C)noc2NC(C)=O)cc1S(N)(=O)=O |
| < 5.00 | < 5.00 |  | < 5.00 | CC(=O)Nc1cc(-c2cc(S(N)(=O)=O)c(C)s2)no1 |
| < 5.00 | < 5.00 |  |  | COc1ccc(-c2noc(N)c2S(N)(=O)=O)cc1S(N)(=O)=O |
| < 5.00 |  |  | < 5.00 | CC(=O)Nc1cc(-c2ccc(C)c(S(N)(=O)=O)c2)no1 |
